From PubChem BioAssay (NCI)
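Test compounds were applied to cells in 96-well plates for 48 hours at 5 doses. TGI denotes the concentration required for complete inhibition of growth.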

Experiments:
Test in all cases: DTP human tumour cell line panel, 48 h
HCT-116 colon = system: HCT-116 colon
IGROV1 ovarian = system: IGROV1 ovarian
A549 NSCLC = system: A549 NSCLC
OVCAR-8 ovarian = system: OVCAR-8 ovarian
SNB-78 CNS = system: SNB-78 CNS
HT29 colon = system: HT29 colon
SK-OV-3 ovarian = system: SK-OV-3 ovarian
DLD-1 colon = system: DLD-1 colon
HOP-92 NSCLC = system: HOP-92 NSCLC
SR leukemia = system: SR leukemia
HL-60(TB) leukemia = system: HL-60(TB) leukemia
DMS 114 small cell lung = system: DMS 114 small cell lung
U251 CNS = system: U251 CNS
TK-10 renal = system: TK-10 renal
NCI-H460 lung = system: NCI-H460 lung
KM20L2 colon = system: KM20L2 colon
K-562 leukemia = system: K-562 leukemia
SK-MEL-28 melanoma = system: SK-MEL-28 melanoma
CAKI-1 renal = system: CAKI-1 renal
HOP-62 NSCLC = system: HOP-62 NSCLC
786-0 renal = system: 786-0 renal
UACC-257 melanoma = system: UACC-257 melanoma
ACHN renal = system: ACHN renal
EKVX NSCLC = system: EKVX NSCLC
SK-MEL-5 melanoma = system: SK-MEL-5 melanoma
SNB-19 CNS = system: SNB-19 CNS
MALME-3M melanoma = system: MALME-3M melanoma
NCI-H23 lung = system: NCI-H23 lung
LXFL 529 NSCLC = system: LXFL 529 NSCLC
M19-MEL melanoma = system: M19-MEL melanoma
UACC-62 melanoma = system: UACC-62 melanoma
KM12 colon = system: KM12 colon
SW-620 colon = system: SW-620 colon
SK-MEL-2 melanoma = system: SK-MEL-2 melanoma
SF-295 CNS = system: SF-295 CNS
LOX IMVI melanoma = system: LOX IMVI melanoma
M14 melanoma = system: M14 melanoma
DMS 273 small cell lung = system: DMS 273 small cell lung
SF-539 CNS = system: SF-539 CNS
NCI-H522 lung = system: NCI-H522 lung
A498 renal = system: A498 renal
HCC-2998 colon = system: HCC-2998 colon
UO-31 renal = system: UO-31 renal
RPMI-8226 leukemia = system: RPMI-8226 leukemia
SF-268 CNS = system: SF-268 CNS
SN12C renal = system: SN12C renal
MOLT-4 leukemia = system: MOLT-4 leukemia
NCI-H226 lung = system: NCI-H226 lung
OVCAR-3 ovarian = system: OVCAR-3 ovarian
CCRF-CEM leukemia = system: CCRF-CEM leukemia
OVCAR-5 ovarian = system: OVCAR-5 ovarian
SNB-75 CNS = system: SNB-75 CNS
COLO 205 colon = system: COLO 205 colon
OVCAR-4 ovarian = system: OVCAR-4 ovarian
RXF 393 renal = system: RXF 393 renal

`CCOC1=CP(=O)(OCC)CC(C)=C1Cl` (stereo not drawn) showed a TGI (HCT-116 colon) of over 100 µM, a TGI (IGROV1 ovarian) of over 100 µM and a TGI (A549 NSCLC) of over 100 µM. It also gave a TGI (OVCAR-8 ovarian) of over 100 µM, a TGI (SNB-78 CNS) of over 100 µM and a TGI (HT29 colon) of over 100 µM. It also gave a TGI (SK-OV-3 ovarian) of over 100 µM, a TGI (DLD-1 colon) of over 100 µM and a TGI (HOP-92 NSCLC) of over 100 µM. For the same molecule, the TGI (SR leukemia) was over 100 µM, the TGI (HL-60(TB) leukemia) was over 100 µM and the TGI (DMS 114 small cell lung) was over 100 µM. It also gave a TGI (U251 CNS) of over 100 µM, a TGI (TK-10 renal) of over 100 µM and a TGI (NCI-H460 lung) of over 100 µM. It also gave a TGI (KM20L2 colon) of over 100 µM, a TGI (K-562 leukemia) of over 100 µM and a TGI (SK-MEL-28 melanoma) of over 100 µM. The TGI (CAKI-1 renal) was over 100 µM, the TGI (HOP-62 NSCLC) was over 100 µM and the TGI (786-0 renal) was over 100 µM. For the same molecule, the TGI (UACC-257 melanoma) was over 100 µM, the TGI (ACHN renal) was over 100 µM and the TGI (EKVX NSCLC) was over 100 µM. For the same molecule, the TGI (SK-MEL-5 melanoma) was over 100 µM, the TGI (SNB-19 CNS) was over 100 µM and the TGI (MALME-3M melanoma) was over 100 µM. For the same molecule, the TGI (NCI-H23 lung) was over 100 µM, the TGI (LXFL 529 NSCLC) was over 100 µM and the TGI (M19-MEL melanoma) was over 100 µM. For the same molecule, the TGI (UACC-62 melanoma) was over 100 µM, the TGI (KM12 colon) was over 100 µM and the TGI (SW-620 colon) was over 100 µM. The TGI (SK-MEL-2 melanoma) was over 100 µM, the TGI (SF-295 CNS) was over 100 µM and the TGI (LOX IMVI melanoma) was over 100 µM. It also gave a TGI (M14 melanoma) of over 100 µM, a TGI (DMS 273 small cell lung) of 75.2 µM and a TGI (SF-539 CNS) of over 100 µM. It also gave a TGI (NCI-H522 lung) of over 100 µM, a TGI (A498 renal) of over 100 µM and a TGI (HCC-2998 colon) of over 100 µM. The TGI (UO-31 renal) was over 100 µM, the TGI (RPMI-8226 leukemia) was over 100 µM and the TGI (SF-268 CNS) was over 100 µM. It also gave a TGI (SN12C renal) of over 100 µM, a TGI (MOLT-4 leukemia) of over 100 µM and a TGI (NCI-H226 lung) of over 100 µM. The TGI (OVCAR-3 ovarian) was over 100 µM, the TGI (CCRF-CEM leukemia) was over 100 µM and the TGI (OVCAR-5 ovarian) was over 100 µM. The TGI (SNB-75 CNS) was over 100 µM and the TGI (COLO 205 colon) was 25.2 µM.

In the case of `O=c1[nH]c(=O)n(C2OC(CO)C(N(O)Cc3ccc(F)cc3)C2O)cc1Br` (stereo not drawn), the TGI (HCT-116 colon) is reported as over 100 µM, the TGI (IGROV1 ovarian) is reported as over 100 µM and the TGI (A549 NSCLC) is reported as over 100 µM. The TGI (OVCAR-8 ovarian) was over 100 µM, the TGI (SNB-78 CNS) was over 100 µM and the TGI (HT29 colon) was over 100 µM. For the same molecule, the TGI (SK-OV-3 ovarian) was over 100 µM, the TGI (DLD-1 colon) was over 100 µM and the TGI (HOP-92 NSCLC) was over 100 µM. The TGI (SR leukemia) was over 100 µM, the TGI (HL-60(TB) leukemia) was over 100 µM and the TGI (DMS 114 small cell lung) was over 100 µM. It also gave a TGI (U251 CNS) of over 100 µM, a TGI (TK-10 renal) of over 100 µM and a TGI (NCI-H460 lung) of over 100 µM. The TGI (KM20L2 colon) was over 100 µM, the TGI (K-562 leukemia) was over 100 µM and the TGI (SK-MEL-28 melanoma) was over 100 µM. The TGI (786-0 renal) was over 100 µM, the TGI (UACC-257 melanoma) was over 100 µM and the TGI (ACHN renal) was over 100 µM. For the same molecule, the TGI (EKVX NSCLC) was over 100 µM, the TGI (SK-MEL-5 melanoma) was over 100 µM and the TGI (SNB-19 CNS) was over 100 µM. The TGI (NCI-H23 lung) was over 100 µM, the TGI (LXFL 529 NSCLC) was over 100 µM and the TGI (M19-MEL melanoma) was over 100 µM. For the same molecule, the TGI (UACC-62 melanoma) was over 100 µM, the TGI (OVCAR-4 ovarian) was over 100 µM and the TGI (KM12 colon) was over 100 µM. It also gave a TGI (SW-620 colon) of over 100 µM, a TGI (SF-295 CNS) of over 100 µM and a TGI (LOX IMVI melanoma) of over 100 µM. It also gave a TGI (M14 melanoma) of over 100 µM, a TGI (RXF 393 renal) of over 100 µM and a TGI (DMS 273 small cell lung) of over 100 µM. For the same molecule, the TGI (SF-539 CNS) was over 100 µM, the TGI (NCI-H522 lung) was over 100 µM and the TGI (A498 renal) was over 100 µM. The TGI (HCC-2998 colon) was over 100 µM, the TGI (UO-31 renal) was over 100 µM and the TGI (RPMI-8226 leukemia) was over 100 µM. For the same molecule, the TGI (SF-268 CNS) was over 100 µM, the TGI (SN12C renal) was over 100 µM and the TGI (MOLT-4 leukemia) was over 100 µM. For the same molecule, the TGI (OVCAR-3 ovarian) was over 100 µM, the TGI (CCRF-CEM leukemia) was over 100 µM and the TGI (OVCAR-5 ovarian) was over 100 µM. For the same molecule, the TGI (SNB-75 CNS) was over 100 µM and the TGI (COLO 205 colon) was over 100 µM.
